We go through one compound from patent US12415834B2, “GhR-binding peptide and composition comprising same” (priority 2021, dated 2025).

Starred links: 1 amine or outer side, 2 acyl side, 3 side chain; linkers in the order of their positions; H or OH if unused. Positions of bridges follow the written chain, without caps; N, C: chain ends. Non-standard residues stand in square brackets, D forms with d. Residues, ends and D or L forms follow the SMILES beside them. Groups on a side chain read outwards from the residue. *: point of attachment. Trp(5-OMe) = COc1ccc2[nH]cc(C[C@H](N)C(=O)O)c2c1; Butanoyl(4-(4-I-phenyl)) = O=C(CCCc1ccc(I)cc1)*; Trp(5-OH) = N[C@@H](Cc1c[nH]c2ccc(O)cc12)C(=O)O; Phe(4-COOH) = N[C@@H](Cc1ccc(C(=O)O)cc1)C(=O)O; γGlu = O=C(O)[C@H](CCC(=O)[*:2])N[*:1]; NMeK = CN[C@@H](CCCCN)C(=O)O; Aib = CC(C)(N)C(=O)O

The experiment concerns the target T1, Recombinant human GhR-Fc protein (Homo sapiens, UniProt P10912).
T1 construct: purchased R&D Systems
Kind of experiment: SPR binding assay (Biacore T200, single-cycle kinetics) of peptides against immobilized human GhR-Fc. The note with it: SPR, hGhR; Table 2 monocyclic peptides; KD calculated from ka and kd; read-out: KD. In short, it runs like this: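 Human GhR-Fc amine-coupled to a CM5 chip at pH 4.0; running buffer HBS-EP with 1% DMSO. Peptides measured by single-cycle kinetics on Biacore T200, with solvent correction and baseline subtraction. KD calculated from fitted ka and kd.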

T1 sequence (P10912 with tags, fused parts or gaps limits assumed): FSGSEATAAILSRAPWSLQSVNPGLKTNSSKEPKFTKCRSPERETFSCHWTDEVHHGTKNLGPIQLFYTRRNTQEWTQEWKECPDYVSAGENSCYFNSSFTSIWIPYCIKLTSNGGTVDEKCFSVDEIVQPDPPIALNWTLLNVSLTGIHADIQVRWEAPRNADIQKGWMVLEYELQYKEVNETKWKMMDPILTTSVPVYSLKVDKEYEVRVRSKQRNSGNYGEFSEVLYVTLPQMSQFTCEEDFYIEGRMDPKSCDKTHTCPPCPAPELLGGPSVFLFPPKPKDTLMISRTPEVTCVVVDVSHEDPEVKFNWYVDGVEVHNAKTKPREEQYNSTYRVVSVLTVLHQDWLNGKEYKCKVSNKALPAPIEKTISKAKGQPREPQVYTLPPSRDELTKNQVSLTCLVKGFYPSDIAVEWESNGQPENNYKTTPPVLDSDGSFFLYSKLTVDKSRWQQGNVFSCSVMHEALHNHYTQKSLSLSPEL

Take `COc1ccc2[nH]cc(C[C@@H]3NC(=O)[C@H](CC(N)=O)NC(=O)[C@H](CO)NC(=O)[C@H](C(C)C)NC(=O)[C@H](C(C)C)NC(=O)[C@H](CCCCNC(=O)CC[C@H](NC(=O)CCCc4ccc(I)cc4)C(=O)O)N(C)C(=O)[C@H](Cc4ccc(C(=O)O)cc4)NC(=O)CSC[C@@H](C(N)=O)NC(=O)[C@H](C(C)C)NC(=O)C(C)(C)NC(=O)[C@H](Cc4c[nH]c5ccc(O)cc45)NC(=O)[C@H](CCCCN)NC(=O)[C@H](Cc4ccc(C(=O)O)cc4)NC3=O)c2c1` [Compound 39] ({CH2CO}-[Phe(4-COOH)][NMeK]([γGlu-Butanoyl(4-(4-I-phenyl))])VVSN[Trp(5-OMe)][Phe(4-COOH)]K[Trp(5-OH)][Aib]VC-NH2; thioether N-13): the Kd was 2.19 nM.

One may read the Kd as the equilibrium constant for the complex coming apart.
